Converted amounts (≈) assume the structure as drawn.
Assays:
[1] = tested on: Mycobacterium tuberculosis; experiment: Antitubercular activity against Mycobacterium tuberculosis assessed as inhibition of bacterial growth; type: functional
[2] = tested on: Mycobacterium tuberculosis; experiment: Antitubercular activity against Mycobacterium tuberculosis H37RvMA assessed as inhibition of bacterial growth by Alamar blue dye based broth microdilution method; type: functional
[3] = tested on: Mycobacterium tuberculosis; experiment: Antitubercular activity against Mycobacterium tuberculosis H37Ra assessed as inhibition of bacterial growth; type: functional
[4] = Clearance in human liver microsomes; type: ADME, Microsome
Cytochrome P450 3A4 [5] = molecular target: T1, Cytochrome P450 3A4 (Homo sapiens, UniProt P08684); experiment: Inhibition of CYP3A4 (unknown origin) using testosterone as substrate; type: ADME
[6] = Clearance in mouse; type: ADME, organism-based; conditions: in vivo
Cytochrome P450 3A4 [7] = molecular target: T1, Cytochrome P450 3A4; experiment: Inhibition of CYP3A4 (unknown origin); type: ADME
Cytochrome P450 1A2 = molecular target: T2, Cytochrome P450 1A2 (Homo sapiens, UniProt P05177); experiment: Inhibition of CYP1A2 (unknown origin); type: ADME
T2 sequence (P05177 whole entry): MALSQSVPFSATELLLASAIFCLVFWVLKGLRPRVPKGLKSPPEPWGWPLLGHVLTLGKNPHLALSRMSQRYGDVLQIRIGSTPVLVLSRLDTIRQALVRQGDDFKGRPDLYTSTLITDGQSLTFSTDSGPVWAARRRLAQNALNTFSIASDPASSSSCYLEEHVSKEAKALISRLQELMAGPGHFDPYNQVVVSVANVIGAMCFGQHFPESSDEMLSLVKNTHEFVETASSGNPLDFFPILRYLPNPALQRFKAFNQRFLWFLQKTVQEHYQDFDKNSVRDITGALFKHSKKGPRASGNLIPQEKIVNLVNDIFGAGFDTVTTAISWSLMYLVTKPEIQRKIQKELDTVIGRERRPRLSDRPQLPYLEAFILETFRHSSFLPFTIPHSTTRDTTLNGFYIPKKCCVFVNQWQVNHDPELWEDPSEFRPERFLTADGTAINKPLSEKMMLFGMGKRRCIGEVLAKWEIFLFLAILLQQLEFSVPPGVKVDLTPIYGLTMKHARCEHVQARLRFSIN

Cytochrome P450 2C8 = molecular target: T3, Cytochrome P450 2C8 (Homo sapiens, UniProt P10632); experiment: Inhibition of CYP2C8 (unknown origin); type: ADME
T3 sequence (P10632 whole entry): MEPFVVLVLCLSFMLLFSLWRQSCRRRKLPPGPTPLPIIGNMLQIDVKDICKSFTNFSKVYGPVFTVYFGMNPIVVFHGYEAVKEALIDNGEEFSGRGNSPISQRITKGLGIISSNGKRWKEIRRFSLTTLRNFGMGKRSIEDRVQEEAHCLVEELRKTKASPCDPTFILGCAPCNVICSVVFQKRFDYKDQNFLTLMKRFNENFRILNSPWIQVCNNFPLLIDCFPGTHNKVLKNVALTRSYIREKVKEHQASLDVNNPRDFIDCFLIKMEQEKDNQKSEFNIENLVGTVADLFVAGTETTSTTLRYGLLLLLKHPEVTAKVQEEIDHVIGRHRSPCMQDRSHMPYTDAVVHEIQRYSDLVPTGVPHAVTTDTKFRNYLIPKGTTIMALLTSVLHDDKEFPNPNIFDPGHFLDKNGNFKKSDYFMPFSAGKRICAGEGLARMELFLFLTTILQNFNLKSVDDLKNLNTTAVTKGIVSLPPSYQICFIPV

Cytochrome P450 2D6 = Cytochrome P450 2D6 (Homo sapiens, UniProt P10635); experiment: Inhibition of CYP2D6 (unknown origin); type: ADME
[8] = Lipophilicity, logD of the compound measured at pH 7.4; type: physicochemical; conditions: buffer
hERG = hERG (Homo sapiens, UniProt Q12809); experiment: Inhibition of hERG at 10 uM relative to control; type: toxicity
[9] = Oral bioavailability in mouse; type: ADME, organism-based; conditions: in vivo
[10] = molecular target: Inosine-5'-monophosphate dehydrogenase (Mycobacterium tuberculosis (strain ATCC 25618 / H37Rv), UniProt P9WKI7); experiment: Inhibition of Mycobacterium tuberculosis GuaB
IMPDH = experiment: Inhibition of human IMPDH; type: toxicity
[11] = Cytotoxicity against human primary hepatocytes in presence of serum; type: toxicity, cell-based, Hepatocyte
[12] = Cytotoxicity against human primary hepatocytes in absence of serum; type: toxicity, cell-based, Hepatocyte
[13] = tested on: Mycobacterium tuberculosis; experiment: Antitubercular activity against Mycobacterium tuberculosis H37Rv assessed as inhibition of bacterial growth; type: functional
Cytochrome P450 2C9 = Cytochrome P450 2C9 (Homo sapiens, UniProt P11712); experiment: Inhibition of CYP2C9 (unknown origin); type: ADME
[14] = tested on: Mycobacterium tuberculosis; experiment: Antitubercular activity against Mycobacterium tuberculosis ATCC 27294 assessed as inhibition of bacterial growth measured after 1 week by broth microdilution method; type: functional; conditions: ATCC 27294, 168 h, time 1 weeks

T1 sequence (P08684 whole entry): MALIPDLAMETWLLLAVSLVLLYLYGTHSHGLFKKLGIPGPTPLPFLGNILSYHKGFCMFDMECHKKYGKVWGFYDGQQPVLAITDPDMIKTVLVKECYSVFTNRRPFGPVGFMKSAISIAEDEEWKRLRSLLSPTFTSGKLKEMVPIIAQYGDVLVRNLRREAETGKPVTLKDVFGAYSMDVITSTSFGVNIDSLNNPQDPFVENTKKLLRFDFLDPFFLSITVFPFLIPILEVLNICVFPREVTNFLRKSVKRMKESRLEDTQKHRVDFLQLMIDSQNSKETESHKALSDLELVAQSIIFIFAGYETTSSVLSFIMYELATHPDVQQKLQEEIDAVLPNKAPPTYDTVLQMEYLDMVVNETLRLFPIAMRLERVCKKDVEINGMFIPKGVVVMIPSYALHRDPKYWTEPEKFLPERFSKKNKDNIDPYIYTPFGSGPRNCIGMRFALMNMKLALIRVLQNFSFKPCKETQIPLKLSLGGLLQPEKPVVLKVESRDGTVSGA
Chain of hERG (Q12809 whole entry): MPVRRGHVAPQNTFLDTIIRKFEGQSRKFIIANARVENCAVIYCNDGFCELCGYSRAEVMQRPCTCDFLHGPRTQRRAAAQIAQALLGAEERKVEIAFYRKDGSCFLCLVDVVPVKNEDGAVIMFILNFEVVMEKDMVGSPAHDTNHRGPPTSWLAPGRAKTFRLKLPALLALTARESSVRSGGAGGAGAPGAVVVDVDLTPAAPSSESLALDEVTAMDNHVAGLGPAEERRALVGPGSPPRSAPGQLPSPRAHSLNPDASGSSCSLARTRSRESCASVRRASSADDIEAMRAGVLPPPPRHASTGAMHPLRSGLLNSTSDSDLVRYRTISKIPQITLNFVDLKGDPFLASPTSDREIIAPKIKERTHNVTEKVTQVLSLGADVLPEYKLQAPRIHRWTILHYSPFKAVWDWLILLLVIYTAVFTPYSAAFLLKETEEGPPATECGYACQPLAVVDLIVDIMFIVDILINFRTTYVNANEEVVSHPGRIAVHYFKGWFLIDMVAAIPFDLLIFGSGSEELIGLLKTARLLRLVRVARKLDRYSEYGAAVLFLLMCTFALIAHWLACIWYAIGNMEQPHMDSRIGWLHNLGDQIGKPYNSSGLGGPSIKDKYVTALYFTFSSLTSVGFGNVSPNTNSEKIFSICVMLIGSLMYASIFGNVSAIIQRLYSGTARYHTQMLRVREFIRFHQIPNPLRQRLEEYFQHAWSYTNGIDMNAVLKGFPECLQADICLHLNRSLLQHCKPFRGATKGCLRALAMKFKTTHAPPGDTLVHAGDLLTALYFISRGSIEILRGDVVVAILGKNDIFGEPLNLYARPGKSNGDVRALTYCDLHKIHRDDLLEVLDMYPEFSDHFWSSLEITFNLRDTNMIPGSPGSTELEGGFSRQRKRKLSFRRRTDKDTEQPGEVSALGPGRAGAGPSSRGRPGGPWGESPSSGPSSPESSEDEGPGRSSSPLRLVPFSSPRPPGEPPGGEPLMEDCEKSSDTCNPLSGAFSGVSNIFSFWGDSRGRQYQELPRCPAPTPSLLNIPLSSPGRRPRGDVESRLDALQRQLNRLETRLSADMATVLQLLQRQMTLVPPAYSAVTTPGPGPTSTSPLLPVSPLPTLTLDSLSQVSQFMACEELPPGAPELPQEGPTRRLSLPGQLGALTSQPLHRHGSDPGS
Chain of Cytochrome P450 2D6 (P10635 whole entry): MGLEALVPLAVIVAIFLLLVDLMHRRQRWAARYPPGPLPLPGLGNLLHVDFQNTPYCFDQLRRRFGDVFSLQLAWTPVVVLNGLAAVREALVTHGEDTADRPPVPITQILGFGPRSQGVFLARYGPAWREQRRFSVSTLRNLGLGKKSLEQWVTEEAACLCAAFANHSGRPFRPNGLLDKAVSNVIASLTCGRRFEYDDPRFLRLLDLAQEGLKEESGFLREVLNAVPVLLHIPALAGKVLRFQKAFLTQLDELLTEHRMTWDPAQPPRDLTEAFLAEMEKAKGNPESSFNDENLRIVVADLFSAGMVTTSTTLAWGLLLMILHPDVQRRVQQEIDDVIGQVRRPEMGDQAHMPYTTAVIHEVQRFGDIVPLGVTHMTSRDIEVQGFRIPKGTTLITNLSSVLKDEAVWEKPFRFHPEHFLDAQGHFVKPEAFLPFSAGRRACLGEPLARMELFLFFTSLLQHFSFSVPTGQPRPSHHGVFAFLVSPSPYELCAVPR
Chain of Inosine-5'-monophosphate dehydrogenase (P9WKI7 whole entry): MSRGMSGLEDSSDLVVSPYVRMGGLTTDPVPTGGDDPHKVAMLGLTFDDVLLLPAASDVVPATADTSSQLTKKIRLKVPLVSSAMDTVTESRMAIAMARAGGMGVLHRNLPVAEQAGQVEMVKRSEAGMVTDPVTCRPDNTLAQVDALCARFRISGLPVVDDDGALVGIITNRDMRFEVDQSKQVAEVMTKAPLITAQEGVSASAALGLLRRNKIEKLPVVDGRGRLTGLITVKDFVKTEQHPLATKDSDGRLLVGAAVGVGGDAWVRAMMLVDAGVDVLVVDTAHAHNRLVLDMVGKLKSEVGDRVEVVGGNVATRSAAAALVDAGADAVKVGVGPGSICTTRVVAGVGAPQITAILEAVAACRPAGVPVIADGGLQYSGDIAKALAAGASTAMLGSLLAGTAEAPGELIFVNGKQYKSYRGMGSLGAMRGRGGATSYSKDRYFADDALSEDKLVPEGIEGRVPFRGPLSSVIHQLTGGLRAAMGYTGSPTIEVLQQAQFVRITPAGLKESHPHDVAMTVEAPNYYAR
Chain of Cytochrome P450 2C9 (P11712 whole entry): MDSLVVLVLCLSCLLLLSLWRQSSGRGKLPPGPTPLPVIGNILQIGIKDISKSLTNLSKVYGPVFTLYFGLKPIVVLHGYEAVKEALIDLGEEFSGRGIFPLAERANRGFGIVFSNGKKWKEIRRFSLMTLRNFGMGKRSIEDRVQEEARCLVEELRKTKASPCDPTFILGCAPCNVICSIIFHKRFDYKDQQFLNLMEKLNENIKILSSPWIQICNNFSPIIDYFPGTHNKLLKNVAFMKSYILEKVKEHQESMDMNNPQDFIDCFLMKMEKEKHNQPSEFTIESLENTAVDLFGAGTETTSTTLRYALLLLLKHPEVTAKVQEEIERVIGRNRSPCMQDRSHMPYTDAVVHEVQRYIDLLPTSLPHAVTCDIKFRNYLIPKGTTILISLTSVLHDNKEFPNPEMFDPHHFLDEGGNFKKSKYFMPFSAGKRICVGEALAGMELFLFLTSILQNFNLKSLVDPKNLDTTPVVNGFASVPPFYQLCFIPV

| Structure (SMILES) | MIC [3] | CLhep predicted [4] | IC50 (Cytochrome P450 3A4 [5]) | logD [8] | further results |
| --- | --- | --- | --- | --- | --- |
| Cc1n[nH]c(C)c1S(=O)(=O)Nc1ccc2c[nH]nc2c1 | – | – | – | – | MIC [1]: 2 µM (≈ 0.583 µg/mL) |
| O=C(C1CCCCC1)N1CCN(S(=O)(=O)c2cccc3cnccc23)CC1 | – | – | – | – | MIC [2]: 2 µM (≈ 0.775 µg/mL) |
| C[C@@H](Oc1ccc(-c2ccn[nH]2)cc1)c1cncc(-c2nc(Cl)c[nH]2)c1 | 0.11 µM (≈ 0.0402 µg/mL) | 12 mL/min/kg | 0.24 µM | – | – |
| C[C@@H](Oc1ccc2c(=O)cc3n(c2c1)CCOC3)c1cc(-n2ccc(Cl)n2)cnn1 | 0.26 µM (≈ 0.11 µg/mL) | 5.3 mL/min/kg | > 10 µM | 2.3 | clearance [6]: 35 mL/min/kg; IC50 (Cytochrome P450 3A4 [7]): > 10 µM; IC50 (Cytochrome P450 1A2): > 10 µM; IC50 (Cytochrome P450 2C8): > 10 µM; IC50 (Cytochrome P450 2D6): > 10 µM; inhibition at 10 µM (hERG): 28%; bioavailability [9]: 5.2%; IC50 [10]: 0.0017 µM; IC50 (IMPDH): > 50 µM; IC50 [11]: > 100 µM; IC50 [12]: > 100 µM |
| C[C@@H](Oc1ccc2ncc3c(c2c1)CCOC3)c1cncc(-c2nc(Cl)c[nH]2)c1 | < 0.003 µM | 19 mL/min/kg | 0.57 µM | – | MIC [13]: 0.039 µM (≈ 0.0159 µg/mL); IC50 (Cytochrome P450 3A4 [7]): < 10 µM; IC50 (Cytochrome P450 1A2): < 10 µM; IC50 (Cytochrome P450 2C8): < 10 µM; IC50 (Cytochrome P450 2C9): < 10 µM; IC50 (Cytochrome P450 2D6): < 10 µM |
| C[C@@H](Oc1ccc2c(=O)cc3n(c2c1)CCOC3)c1cncc(-c2nc(C(F)(F)F)c[nH]2)c1 | 0.099 µM (≈ 0.0452 µg/mL) | 16 mL/min/kg | 4.3 µM | 3 | – |
| C/C(=N/O)c1cccc(C(C)(C)NC(=O)Nc2ccc(Cl)c(C(=O)N(C)C)c2)c1 | – | – | – | – | MIC [14]: 16 µM (≈ 6.67 µg/mL) |
| C[C@@H](Oc1ccc2c(=O)cc3n(c2c1)CCOC3)c1cncc(-c2nc(C#N)c[nH]2)c1 | 0.39 µM (≈ 0.161 µg/mL) | 5.5 mL/min/kg | > 10 µM | 2.1 | – |
| C[C@@H](Oc1cccc(-c2ccn[nH]2)c1)c1cncc(-c2nc(Cl)c[nH]2)c1 | 3.1 µM (≈ 1.13 µg/mL) | 16 mL/min/kg | 0.32 µM | – | – |
| C[C@@H](Oc1cc(-c2ccn[nH]2)cc(N2CCOCC2)c1)c1cncc(-c2nc(Cl)c[nH]2)c1 | 0.18 µM (≈ 0.0812 µg/mL) | 16 mL/min/kg | – | – | – |
| C[C@@H](Oc1ccc2c(=O)cc3n(c2c1)CCOC3)c1cncc(-n2ccc(C#N)n2)c1 | 0.18 µM (≈ 0.0744 µg/mL) | 11 mL/min/kg | – | 1.7 | – |
| C[C@H](Nc1ccc2ncc3c(c2c1)CCOC3)C(=O)Nc1ccc(Cl)nc1 | 0.035 µM (≈ 0.0134 µg/mL) | 16 mL/min/kg | – | – | MIC [13]: 0.058 µM (≈ 0.0222 µg/mL); clearance [6]: 132 mL/min/kg |
| C[C@@H](Oc1ccc2c(=O)cc3n(c2c1)CCOC3)c1cc(-n2ccc(C(F)(F)F)n2)cnn1 | 0.58 µM (≈ 0.265 µg/mL) | 7 mL/min/kg | > 10 µM | 2.1 | – |
| C[C@@H](Oc1ccc2c(=O)cc3n(c2c1)CCOC3)c1cncc(-n2ccc(Cl)n2)c1 | 0.091 µM (≈ 0.0385 µg/mL) | 16 mL/min/kg | > 10 µM | 2.8 | – |
| C[C@@H](Oc1ccc2c(=O)cc3n(c2c1)CCOC3)c1cc(-n2ccc(OC(F)F)n2)cnn1 | 0.29 µM (≈ 0.132 µg/mL) | < 3.9 mL/min/kg | > 10 µM | 1.6 | inhibition at 10 µM (hERG): 70% |
| C[C@@H](Oc1ccc2ncc(CO)cc2c1)c1cncc(-c2nc(Cl)c[nH]2)c1 | 0.007 µM (≈ 0.00267 µg/mL) | 12 mL/min/kg | 2.1 µM | – | – |
| C[C@@H](Oc1ccc2c(=O)cc3n(c2c1)CCOC3)c1cncc(-n2ccc(C(F)(F)F)n2)c1 | 0.29 µM (≈ 0.132 µg/mL) | 18 mL/min/kg | > 10 µM | 3.1 | – |
| CC(Oc1ccc2c(=O)cc3n(c2c1)CCOC3)c1cncc(-c2nc(Cl)c[nH]2)c1 (racemic) | 0.12 µM (≈ 0.0507 µg/mL) | 13 mL/min/kg | 3.7 µM | 2.2 | – |

Reference: ChEMBL document CHEMBL6109038, “Discovery of potent dihydro-oxazinoquinolinone inhibitors of GuaB for the treatment of tuberculosis” (Bioorg Med Chem Lett, 2025)
